In US11040031B2, “Pyrazole derivatives as MALT1 inhibitors” (Janssen Pharmaceutica NV, priority 2018, dated 2021):
pIC50: −log10 of the molar value.

What was measured:
[1] = tested on: Secretion of IL10 by OCI-LY3 ABC-DLBCL cells; assay: Human IL10 Mesoscale assay (OCI-LY3); type: cell-based; settings: OCI-LY3 cells, 24 h incubation, supernatant, MSD V-Plex, read-out: Human IL10 Mesoscale assay (OCI-LY3)
Method: (§1) NFKB signaling regulates the secretion of multiple cytokines, including IL6 and IL10. Secretion of the cytokines IL6 and IL10 by TMD8 or OCI-LY3 ABC-DLBCL cells was measured using a mesoscale assay.
(§2) Cell passage number should not exceed 30. Cells should be kept between 0.5-2.5 million cells per mL during culturing and cells should be supplemented every 2-3 days with fresh 50 µM beta-mercaptoenthanol. No beta-mercaptoethanol was used during the mesoscale assay.
(§3) DMSO control wells were used to determine the maximum signal (High Control (HC)). […] Compounds and cells were incubated for 24 h at 37° C. and 5% CO2 (assay volume is 150 μL). After 24 h of incubation 50 μL of the supernatant was transferred to a MSD plate (V-Plex Proinflammation Panel 1 (human) kit, Mesoscale (MSD)) and incubated for 2 h with vigorous shaking (600 rpm) at room temperature. Following incubation, plates were washed 3× with PBS+0.05% Tween-20 and 25 μL detection antibody solution (IL6 & IL10 antibodies in diluent 3 (MSD)) was added per well followed by 2 h of incubation with vigorous shaking (600 rpm) at room temperature. After 3× washes with PBS+0.05% Tween-20, plates were incubated with 150 μL 2× Read Buffer T and read on SECTOR imager.

[2] = tested on: Secretion of IL6 by OCI-LY3 ABC-DLBCL cells; assay: Human IL6 Mesoscale assay (OCI-LY3); type: cell-based; settings: OCI-LY3 cells, 24 h incubation, supernatant, MSD V-Plex, read-out: Human IL6 Mesoscale assay (OCI-LY3)
Method: as §1, §2, §3

[3] = target: T1, full-length MALT1 protein (Strep-MALT1(1-824)-His) (Homo sapiens, UniProt Q9UDY8); assay: biochemical;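 note: fluorogenic LRSR-AMC substrate cleavage by MALT1, 50 min compound preincubation then 4 h reaction at RT, 11-point dilution from 30 µM, scaled between enzyme-free and untreated enzyme controls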
T1 sequence (Q9UDY8 1-824): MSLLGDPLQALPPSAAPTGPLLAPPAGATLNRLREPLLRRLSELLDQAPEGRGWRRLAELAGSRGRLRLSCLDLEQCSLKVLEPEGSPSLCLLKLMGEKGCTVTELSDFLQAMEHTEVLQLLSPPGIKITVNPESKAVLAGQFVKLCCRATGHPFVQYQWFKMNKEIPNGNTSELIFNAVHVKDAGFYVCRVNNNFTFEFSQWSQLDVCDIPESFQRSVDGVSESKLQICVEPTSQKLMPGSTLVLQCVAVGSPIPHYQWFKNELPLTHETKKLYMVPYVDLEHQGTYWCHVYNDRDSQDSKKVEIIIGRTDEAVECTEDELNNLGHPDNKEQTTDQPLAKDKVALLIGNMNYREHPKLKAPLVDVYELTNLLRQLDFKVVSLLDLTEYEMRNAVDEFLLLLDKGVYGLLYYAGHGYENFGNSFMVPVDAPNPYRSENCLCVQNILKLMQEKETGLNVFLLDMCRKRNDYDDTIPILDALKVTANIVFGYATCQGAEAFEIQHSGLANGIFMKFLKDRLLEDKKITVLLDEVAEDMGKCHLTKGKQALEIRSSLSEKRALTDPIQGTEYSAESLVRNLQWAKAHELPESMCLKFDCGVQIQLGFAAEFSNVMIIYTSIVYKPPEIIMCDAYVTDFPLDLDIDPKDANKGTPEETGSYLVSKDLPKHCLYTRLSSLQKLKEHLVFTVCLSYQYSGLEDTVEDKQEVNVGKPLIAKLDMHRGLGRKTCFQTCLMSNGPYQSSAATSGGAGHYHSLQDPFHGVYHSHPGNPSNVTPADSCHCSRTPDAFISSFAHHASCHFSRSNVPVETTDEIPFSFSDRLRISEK
Method: MALT1 protease activity was assessed in an in vitro assay using a tetrapeptide as substrate and full-length MALT1 protein (Strep-MALT1(1-824)-His) purified from baculovirus-infected insect cells. The tetrapeptide LRSR is coupled to AMC (7-amino-4-methylcoumarin) and provides a quenched, fluorescent substrate for the MALT1 protease (SM Biochemicals). Cleavage of AMC from the Arginine residue results in an increase in coumarin fluorescence measured at 460 nm (excitation 355 nm). […] Test compounds were spotted at 50 nL in 100% DMSO per well of a black 384-Proxiplate (Perkin Elmer). Test compound concentrations ranged from 30 μM to 0.5 nM using 11 dilution steps (1:3). Background signal was measured from control wells containing assay buffer without enzyme which functions as low control (LC). High control (HC) values were generated using the reaction with enzyme but no compound treatment. Compounds were pre-incubated with MALT1 enzyme for 50 minutes at RT. Substrate was added subsequently and fluorescence was measured in Labsystems fluoroskan at excitation 355 nm and emission 460 nm to determine time 0. The reaction was subsequently incubated for 4 h at RT and fluorescence was measured. […] The enzyme reaction was linear during the 4 h incubation period.
IC50 values were calculated using the following formula (Z prime should be >0.5):
From this an IC50 value (inhibitory concentration causing 50% inhibition) can be obtained. An estimate of the slope of the plot in terms of the Hill coefficient was also obtained.
With y=estimated response • UB=upper bound • LB=lower bound • h=hill

SMILES	pIC50 [1]	pIC50 [2]	pIC50 [3]
Cc1cc(C#N)ccc1-n1ncc(C(=O)Nc2cnc(-n3nccn3)c(Cl)c2)c1C(F)(F)F [Cpd 37, N-(5-chloro-6-(2H-1,2,3-triazol-2-yl)pyridin-3-yl)-1-(4-cyano-2-methylphenyl)-5-(trifluoromethyl)-1H-pyrazole-4-carboxamide]	7.20	7.02	7.20
O=C(Nc1cnc(-n2nccn2)c(Cl)c1)c1cnn(-c2ccc(F)c(F)c2Cl)c1C(F)(F)F [Cpd 73, 1-(2-chloro-3,4-difluorophenyl)-N-(5-chloro-6-(2H-1,2,3-triazol-2-yl)pyridin-3-yl)-5-(trifluoromethyl)-1H-pyrazole-4-carboxamide]	6.96	6.86	6.63
N#Cc1cc(NC(=O)c2cnn(-c3ccc(F)c(F)c3F)c2C(F)(F)F)cnc1-n1nccn1 [Cpd 97, N-(5-cyano-6-(2H-1,2,3-triazol-2-yl)pyridin-3-yl)-5-(trifluoromethyl)-1-(2,3,4-trifluorophenyl)-1H-pyrazole-4-carboxamide]	7.02	6.82	6.58
Cc1c(-n2ncc(C(=O)Nc3cnc(-n4nccn4)c(Cl)c3)c2C(F)(F)F)ccc(F)c1F [Cpd 174, N-(5-chloro-6-(2H-1,2,3-triazol-2-yl)pyridin-3-yl)-1-(3,4-difluoro-2-methylphenyl)-5-(trifluoromethyl)-1H-pyrazole-4-carboxamide]	7.08	–	6.77
Cc1nc(-n2nccn2)c(Cl)cc1NC(=O)c1cnn(-c2ccc(C#N)c(N)n2)c1C(F)(F)F [Cpd 178, 1-(6-amino-5-cyanopyridin-2-yl)-N-(5-chloro-2-methyl-6-(2H-1,2,3-triazol-2-yl)pyridin-3-yl)-5-(trifluoromethyl)-1H-pyrazole-4-carboxamide]	–	–	6.70
Cc1ccc(-n2ncc(C(=O)Nc3cnc(-n4nccn4)c(Cl)c3)c2C(F)(F)F)nc1N [Cpd 184, 1-(6-amino-5-methylpyridin-2-yl)-N-(5-chloro-6-(2H-1,2,3-triazol-2-yl)pyridin-3-yl)-5-(trifluoromethyl)-1H-pyrazole-4-carboxamide]	–	–	6.48
Cc1cc(F)c(N)nc1-n1ncc(C(=O)Nc2cc(C#N)c(-n3nccn3)nc2C)c1C(F)(F)F [Cpd 186, 1-(6-amino-5-fluoro-3-methylpyridin-2-yl)-N-(5-cyano-2-methyl-6-(2H-1,2,3-triazol-2-yl)pyridin-3-yl)-5-(trifluoromethyl)-1H-pyrazole-4-carboxamide]	–	–	6.47
N#Cc1cc(NC(=O)c2cnn(-c3nc(N)ccc3C(F)(F)F)c2C(F)(F)F)cnc1-n1nccn1 [Cpd 187, 1-(6-amino-3-(trifluoromethyl)pyridin-2-yl)-N-(5-cyano-6-(2H-1,2,3-triazol-2-yl)pyridin-3-yl)-5-(trifluoromethyl)-1H-pyrazole-4-carboxamide]	–	–	6.42
Cc1cc(F)c(N)nc1-n1ncc(C(=O)Nc2cc(Cl)c(-n3nccn3)nc2C)c1C(F)(F)F [Cpd 188, 1-(6-amino-5-fluoro-3-methylpyridin-2-yl)-N-(5-chloro-2-methyl-6-(2H-1,2,3-triazol-2-yl)pyridin-3-yl)-5-(trifluoromethyl)-1H-pyrazole-4-carboxamide]	–	–	6.42
CNc1cccc(-n2ncc(C(=O)Nc3cnc(-n4nccn4)c(C#N)c3)c2C(F)(F)F)n1 [Cpd 189, N-(5-cyano-6-(2H-1,2,3-triazol-2-yl)pyridin-3-yl)-1-(6-(methylamino)pyridin-2-yl)-5-(trifluoromethyl)-1H-pyrazole-4-carboxamide]	–	–	6.36
Cc1cc(N)ncc1-n1ncc(C(=O)Nc2cnc(-n3nccn3)c(C#N)c2)c1C(F)(F)F [Cpd 190, 1-(6-amino-4-methylpyridin-3-yl)-N-(5-cyano-6-(2H-1,2,3-triazol-2-yl)pyridin-3-yl)-5-(trifluoromethyl)-1H-pyrazole-4-carboxamide]	–	–	6.35
Cc1cc(N)ncc1-n1ncc(C(=O)Nc2cnc(-n3nccn3)c(Cl)c2)c1C(F)(F)F [Cpd 191, 1-(6-amino-4-methylpyridin-3-yl)-N-(5-chloro-6-(2H-1,2,3-triazol-2-yl)pyridin-3-yl)-5-(trifluoromethyl)-1H-pyrazole-4-carboxamide]	–	–	6.14
Nc1ccc(C(F)(F)F)c(-n2ncc(C(=O)Nc3cnc(-n4nccn4)c(Cl)c3)c2C(F)(F)F)n1 [Cpd 192, 1-(6-amino-3-(trifluoromethyl)pyridin-2-yl)-N-(5-chloro-6-(2H-1,2,3-triazol-2-yl)pyridin-3-yl)-5-(trifluoromethyl)-1H-pyrazole-4-carboxamide]	–	–	5.95
N#Cc1cc(NC(=O)c2cnn(-c3ccc(N)nc3)c2C(F)(F)F)cnc1-n1nccn1 [Cpd 194, 1-(6-aminopyridin-3-yl)-N-(5-cyano-6-(2H-1,2,3-triazol-2-yl)pyridin-3-yl)-5-(trifluoromethyl)-1H-pyrazole-4-carboxamide]	–	–	5.93

Continued, values first:

pIC50 [1]	pIC50 [2]	pIC50 [3]	SMILES
–	–	5.88	Cc1nc(N)ccc1-n1ncc(C(=O)Nc2cnc(-n3nccn3)c(C#N)c2)c1C(F)(F)F [Cpd 196, 1-(6-amino-2-methylpyridin-3-yl)-N-(5-cyano-6-(2H-1,2,3-triazol-2-yl)pyridin-3-yl)-5-(trifluoromethyl)-1H-pyrazole-4-carboxamide]
–	–	5.60	Cc1ccc(-n2ncc(C(=O)Nc3cc(C#N)c(-n4nccn4)nc3C)c2C(F)(F)F)nc1N [Cpd 197, 1-(6-amino-5-methylpyridin-2-yl)-N-(5-cyano-2-methyl-6-(2H-1,2,3-triazol-2-yl)pyridin-3-yl)-5-(trifluoromethyl)-1H-pyrazole-4-carboxamide]
–	–	5.43	Cc1nc(-n2nccn2)c(Cl)cc1NC(=O)c1cnn(-c2ccc(C(N)=O)c(N)n2)c1C(F)(F)F [Cpd 198, 2-amino-6-(4-((5-chloro-2-methyl-6-(2H-1,2,3-triazol-2-yl)pyridin-3-yl)carbamoyl)-5-(trifluoromethyl)-1H-pyrazol-1-yl)nicotinamide]
–	–	6.76	Cc1c(-n2ncc(C(=O)Nc3cnc(-n4nccn4)c(Cl)c3)c2C(F)(F)F)ccnc1N [Cpd 199, 1-(2-amino-3-methylpyridin-4-yl)-N-(5-chloro-6-(2H-1,2,3-triazol-2-yl)pyridin-3-yl)-5-(trifluoromethyl)-1H-pyrazole-4-carboxamide]
–	–	6.86	Cc1nc(C#N)ccc1-n1ncc(C(=O)Nc2cnc(-n3nccn3)c(Cl)c2)c1C(F)(F)F [Cpd 201, N-(5-chloro-6-(2H-1,2,3-triazol-2-yl)pyridin-3-yl)-1-(6-cyano-2-methylpyridin-3-yl)-5-(trifluoromethyl)-1H-pyrazole-4-carboxamide]
–	–	6.13	O=C(Nc1cnc(-n2nccn2)c(Cl)c1)c1cnn(-c2cccc(Br)n2)c1C(F)(F)F [Cpd 202, 1-(6-bromopyridin-2-yl)-N-(5-chloro-6-(2H-1,2,3-triazol-2-yl)pyridin-3-yl)-5-(trifluoromethyl)-1H-pyrazole-4-carboxamide]
–	–	5.25	O=C(Nc1cnc(-n2nccn2)c(Cl)c1)c1cnn(-c2cccc(-c3ccco3)n2)c1C(F)(F)F [Cpd 207, N-(5-chloro-6-(2H-1,2,3-triazol-2-yl)pyridin-3-yl)-1-(6-(furan-2-yl)pyridin-2-yl)-5-(trifluoromethyl)-1H-pyrazole-4-carboxamide]
–	–	5.29	O=C(Nc1cnc(-n2nccn2)c(Cl)c1)c1cnn(-c2cccc(C3=COCCO3)n2)c1C(F)(F)F [Cpd 208, N-(5-chloro-6-(2H-1,2,3-triazol-2-yl)pyridin-3-yl)-1-(6-(5,6-dihydro-1,4-dioxin-2-yl)pyridin-2-yl)-5-(trifluoromethyl)-1H-pyrazole-4-carboxamide]
